Results as given in ChEMBL document CHEMBL4765387, “Design of G-protein-coupled bile acid receptor 1 (GPBAR1, TGR5) soft drugs with reduced gallbladder-filling effects” (Eur J Med Chem, 2020).

How the values were obtained:
[1] = Stability of the compound in mouse plasma assessed as parent compound remaining at 1 uM measured after 5 mins; format: ADME, cell-free; details: read-out: Stabilty
[2] = Cmax in overnight-fasted ICR mouse gallbladder tissue assessed as 5-[3-(4-Cyclopropyl-3,4-dihydro-2H-quinoxaline-1-carbonyl)-pyridin-4-yloxy]-benzofuran-3-carboxylic acid at 50 mg/kg, po measured after 1 hr by LC-MS/MS analysis; format: ADME, organism-based, Gall bladder; set-up: route oral, time 1 hrs, dose 50 mg/kg; details: in vivo
[3] = Peak drug concentration in overnight-fasted ICR mouse colon at 50 mg/kg, po measured after 4 hr by LC-MS/MS analysis; format: ADME, organism-based; set-up: route oral, time 4 hrs, dose 50 mg/kg
[4] = Peak drug concentration in overnight-fasted ICR mouse ileum at 50 mg/kg, po measured after 2 hr by LC-MS/MS analysis; format: ADME, organism-based; set-up: route oral, dose 50 mg/kg, time 2 hrs
[5] = Cmax in overnight-fasted ICR mouse systemic circulation assessed as 5-[3-(4-Cyclopropyl-3,4-dihydro-2H-quinoxaline-1-carbonyl)-pyridin-4-yloxy]-benzofuran-3-carboxylic acid at 50 mg/kg, po measured after 1 hr by LC-MS/MS analysis; format: ADME, organism-based; set-up: route oral, dose 50 mg/kg, time 1 hrs; details: in vivo
[6] = Cmax in overnight-fasted ICR mouse systemic circulation at 50 mg/kg, po measured after 1 hr by LC-MS/MS analysis; format: ADME, organism-based; set-up: route oral, time 1 hrs, dose 50 mg/kg
[7] = Cmax in overnight-fasted ICR mouse bile assessed as 5-[3-(4-Cyclopropyl-3,4-dihydro-2H-quinoxaline-1-carbonyl)-pyridin-4-yloxy]-benzofuran-3-carboxylic acid at 50 mg/kg, po measured after 1 hr by LC-MS/MS analysis; format: ADME, organism-based; set-up: route oral, time 1 hrs, dose 50 mg/kg; details: in vivo

Question: For `CCOC(=O)c1coc2cc(Cl)c(Oc3ccncc3C(=O)N3CCN(C4CC4)c4ccccc43)cc12`, which remaining at 5 min, 1 µM [1] is on record?
Answer: 92.4%

Question: Which remaining at 5 min, 1 µM [1] does the source give for `CCCOC(=O)c1coc2ccc(Oc3ccncc3C(=O)N3CCN(C4CC4)c4ccccc43)cc12` here?
Answer: 12.3%

Question: Which remaining at 5 min, 1 µM [1] does the source give for `COC(=O)c1coc2ccc(Oc3ccncc3C(=O)N3CCN(C4CC4)c4ccccc43)cc12` here?
Answer: 71%

Question: Which remaining at 5 min, 1 µM [1] does the source give for `CCOC(=O)c1coc2ccc(Oc3ccncc3C(=O)N3CCN(C4CC4)c4ccccc43)cc12` here?
Answer: 38.5%

Question: Which Cmax [2] does the source give for `CCOCOC(=O)c1coc2ccc(Oc3ccncc3C(=O)N3CCN(C4CC4)c4ccccc43)cc12` here?
Answer: 80 ng/mL

Question: And the Cmax [3]?
Answer: 2700 ng/g

Question: And the Cmax [4]?
Answer: 10200 ng/g

Question: And the Cmax [5]?
Answer: 80 ng/mL

Question: And the Cmax [6]?
Answer: 3 ng/mL

Question: What about the Cmax [7] of the same compound?
Answer: 80 ng/mL
